Consider five compounds from ChEMBL document CHEMBL1135149, “Syntheses of depsipeptide analogues of the insect neuropeptide proctolin” (2002).

The test system of this assay is Locusta migratoria. As to the kind of experiment: Myotropic effect was assessed in vitro, using an isometric muscle contraction bioassay employing isolated hindguts from the locust Locusta migratoria at 1 uM/L. It is filed as functional, Muscle tissue.

Non-standard residues stand in square brackets, D forms with d. Residues, ends and D or L forms follow the SMILES beside them. *: point of attachment. Hpla = O=C(O)[C@@H](O)Cc1ccc(O)cc1; Hica(2S) = CC(C)C[C@H](O)C(=O)O; X1 = C[C@@H](O)[C@H](O*)C(=O)O

With `CC(C)C[C@H](NC(=O)[C@H](Cc1ccc(O)cc1)NC(=O)[C@@H](N)CCCN=C(N)N)C(=O)N1CCC[C@H]1C(=O)O[C@H](C(=O)O)[C@@H](C)O.O=C(O)C(F)(F)F.O=C(O)C(F)(F)F.O=C(O)C(F)(F)F` (H-RYLP-X1), the Isometric contraction worked out at 106%.

`CC(C)C[C@H](OC(=O)[C@H](Cc1ccc(O)cc1)NC(=O)[C@@H](N)CCCN=C(N)N)C(=O)N1CCC[C@H]1C(=O)O[C@H](C(=O)O)[C@@H](C)O.O=C(O)C(F)(F)F.O=C(O)C(F)(F)F.O=C(O)C(F)(F)F` (H-RY[Hica(2S)]P-X1): the Isometric contraction stood at 27%. The compound `CC(C)C[C@H](OC(=O)[C@H](Cc1ccc(O)cc1)NC(=O)[C@@H](N)CCCN=C(N)N)C(=O)N1CCC[C@H]1C(=O)N[C@H](C(=O)O)[C@@H](C)O.O=C(O)C(F)(F)F.O=C(O)C(F)(F)F.O=C(O)C(F)(F)F` (H-RY[Hica(2S)]PT-OH) registered an Isometric contraction of 30%.

In the case of `CC(C)C[C@H](NC(=O)[C@H](Cc1ccc(O)cc1)OC(=O)[C@@H](N)CCCN=C(N)N)C(=O)N1CCC[C@H]1C(=O)N[C@H](C(=O)O)[C@@H](C)O.O=C(O)C(F)(F)F.O=C(O)C(F)(F)F.O=C(O)C(F)(F)F` (H-R[Hpla]LPT-OH), the Isometric contraction is listed as 66%. As to H-RYLPT-OH [PROCTOLIN], the Isometric contraction came out at 100%.
